Source: patent publication US8148354B2, “Use of 20(S)-protopanaxadiol in manufacture of antidepressants” (priority 2006, dated 2012)

Columns and labels:
[1] = tested on: chronic unpredictable stress rats; experiment: Chronic unpredictable stress testing of rats (open-field test); type: in vivo; conditions: mean ± SD
Method: Male stressed SD rats were housed individually and exposed for 21 days to the following unpredictable stressors: ice water swimming (4° C., 5 min), tail pinch (3 min), water deprivation (40 h), food deprivation (40 h), paired feeding, wet bedding, binding, and overnight lighting, each stress was applied two or three times. Animals in the non-stressed control group were housed 5 per cage. An open-field test was used to observe behavior. A large cubiform box (80×80×40 cm) was employed in which the floor was divided into 25 grids of equal size using white lines, with the same size grids also marked on the surrounding walls. The number of floor grids crossed (crossing) and the number of rearing up on hind limbs (rearing) were recorded. Observations of each rat were made every 3 minutes on the 22nd day. T test was used for statistical analysis.

[2] = tested on: mice in the forced swimming test; experiment: Forced swimming test using mice; type: in vivo, Kunming mice; conditions: mean ± SD
Method: Fifty male Kunming mice, 9-10 weeks old and weighing 22-24 g, were randomly divided by weight into 5 groups and administered by gavage a single dose of one of the drugs listed in Table 6. Sixty minutes later, the mice were placed in individual beakers (2500 ml, 20 cm×14 cm in diameter), which had previously been filled with water (25° C.) up to 10 cm from the bottom. The duration of immobility in the last 4 minutes in the 6-min swimming test was recorded (the term immobility indicates no movement except for respiration). T-test was used for statistical analysis.
Fifty male Kunming mice, 8-9 weeks old and weighing 18-22 g, were randomly divided by weight into 5 groups and subjected to gavage once a day for 10 consecutive days as shown in Table 7. Sixty minutes after the last dose, the mice were individually placed in beakers (2500 ml, 20 cm×14 cm in diameter), which had previously been filled with water (25° C.) up to 10 cm from the bottom. The cumulative time of immobility in the last 4 minutes of a total swimming time of 6 minutes was recorded (the term immobility indicates no movement except for respiration). T-test was used for statistical analysis.

[3] = tested on: model rats wearing shackles; experiment: Stress testing of rats wearing shackles (open-field test); type: in vivo; conditions: shackle model rats, mean ± SD
Text: (i) Modeling Method: Sixty male SD rats, 8-9 weeks old and weighing 200-250 g, were randomly divided into 6 groups and subjected to gavage once a day as shown in Table 9. On the first day, individually housed rats were fitted with a cylindrical plastic shackle-like device composed of two pieces of red organic glass 0.2 cm-thick and 4 cm in diameter. The device could be adjusted according to the size of the animals and was worn for 21 days.
(ii) Test Indexes: Behavior such as rearing up; grabbing and gnawing; braying; slowness in reactions; action tardiness; narrowing of the eyes with secretion; yellow of fur; small, dry and fewer feces; borrow-reddish fail with scales and weight loss. An open-field test was used to observe the behavior of animals on day 21 (the same method used with the chronic stress rat model).

[4] = tested on: 5-HT Re-uptake; experiment: 5-HT re-uptake test ([14C]-5-HT, hypothalamus homogenate); type: biochemical, SD rats
Method: Eight male SD rats were decapitated. The hypothalamuses were rapidly removed, weighed and homogenized in a 9-fold volume of 0.32 mol/L ice-cold sucrose solution, and centrifuged at a rate of 3420 rpm for 10 minutes at 0-4° C. […] Ten tubes were prepared for each group and all tubes were incubated at 37° C. for 5 minutes. […] CO2 chamber for 5 minutes, followed by centrifugation at a rate of 7,480 rpm for 10 minutes. The supernatant of the solution was put into a scintillation vial for counting after adding 10 ml scintillation fluid (scintillation was performed 3 times). The re-uptake of serotonin was calculated by the difference in DMP at 37° C. and 0° C.

[5] = open-field day 21, 16 mg/kg × 21 i.g.

| Compound | Number of crossing ([1]; 16 mg/kg × 21 i.g.) [times/3 min] | Number of rearing ([1]; 16 mg/kg × 21 i.g.) [times/3 min] | Cumulative immobility within 4 minutes ([2]; multiple dose 18 mg/kg × 10 i.g.) [s] | Cumulative immobility within 6 minutes ([2]; single dose 18 mg/kg × 1 i.g.) [s] | Number of crossing [3, 5] [times/3 min] | Number of rearing [3, 5] [times/3 min] | Number of crossing ([1]; 3.33 mg/kg × 21 i.g.) [times/3 min] | Number of rearing ([1]; 3.33 mg/kg × 21 i.g.) [times/3 min] | Amount of re-uptake ([4]; concentration 0.01 μg/ml) [dmp] | Inhibitory rate ([4]; concentration 0.01 μg/ml) [%] | Amount of re-uptake ([4]; concentration 0.1 μg/ml) [dmp] | Inhibitory rate ([4]; concentration 0.1 μg/ml) [%] | Amount of re-uptake ([4]; concentration 1 μg/ml) [dmp] | Inhibitory rate ([4]; concentration 1 μg/ml) [%] | Amount of re-uptake ([4]; concentration 10 μg/ml) [dmp] | Inhibitory rate ([4]; concentration 10 μg/ml) [%] | Number of crossing ([3]; open-field day 21, 3.33 mg/kg × 21 i.g.) [times/3 min] |
| --- | --- | --- | --- | --- | --- | --- | --- | --- | --- | --- | --- | --- | --- | --- | --- | --- | --- |
| CNCCC(Oc1ccc(C(F)(F)F)cc1)c1ccccc1 (centres unmarked) [Fluoxetine, reference compound] | 44.40 ± 1.45 | 11.30 ± 3.43 | 81.50 ± 36.77 | 86.20 ± 32.56 | 11.20 ± 3.08 | 49.80 ± 20.31 | – | – | – | – | – | – | – | – | – | – | – |
| CC(C)=CCC[C@](C)(O)[C@H]1CC[C@]2(C)[C@@H]1[C@H](O)C[C@@H]1[C@@]3(C)CC[C@H](O)C(C)(C)[C@@H]3CC[C@]12C [20(S)-protopanaxadiol] | – | – | – | – | – | – | 32.90 ± 13.19 | 6.50 ± 2.64 | 4377.8 ± 479.7 | 11.7 | 4117.3 ± 532.0 | 17.0 | 3963.5 ± 459.4 | 20.1 | 3696.4 ± 392.9 | 25.5 | 7.00 ± 2.05 |
